Data: US11622951B2, “Alpha-aminoadipate for treatment of vision loss and restoring sight” (The Schepens Eye Research Institute, Inc., priority 2013, dated 2023)

Assays:
[1] = system: retinal glial cells (GFAP expression); experiment: GFAP immunolabeling of retinal glia after subretinal injection; type: in vivo, mouse; details: adult wild-type mice
Description: Mice were anesthetized by intraperitoneal injection of ketamine (62.5 mg/kg) and xylazine (12.5 mg/kg) and transcardially perfused with phosphate buffered saline (PBS) followed by 4% paraformaldehyde in PBS. Retinal flat-mounts or transverse retinal sections (14 μm) were preblocked with PBS containing 3% bovine serum albumin (Sigma-Aldrich, St. Louis, Mo.) and 0.3% Triton X (Sigma-Aldrich) and incubated, first, with primary antibody overnight, and then with secondary antibody for 1 hour at room temperature. […] Assessment of morphological integration were quantified by counting EGFP+ cells located outside of transplanted cell clusters in retinal whole-mounts. Statistical significance was determined by either the two tailed student t test or ANOVA.
Retinal astrocytes and Müller glia are central to the homeostatic and metabolic support of retinal neurons; whereas, after injury these cells develop glial scar that forms critical barriers to neuron regeneration and integration by retinal progenitor cells. […] Retinal glial morphology was examined by immunolabeling for glial marker GFAP and assessed the level of GFAP expression by Western blot at day 1-7 post injection. Expression of GFAP is widely detected in the normal mouse retinas (FIG. 1a).

GFAP = experiment: Western blot of GFAP expression in injected retinas; type: in vivo, mouse
Description: To determine the effect of α-AA on retinal glial cells, mouse retinas were dissected and homogenized in lysis buffer 3% sodium dodecyl sulfate (Sigma-Aldrich), 0.3 M sucrose (Sigma-Aldrich), 1 mM orthovanadium (Sigma-Aldrich)]. Protein concentrations were determined with a BCA assay (Pierce; Rockford, Ill.). Protein (20 μg) was loaded on a 10% sodium dodecyl sulfate-polyacrylamide gel and transferred to a nitrocellulose membrane. The blot was blocked in 1% bovine serum albumin (Sigma-Aldrich) and 4% dry milk in PBS and probed with primary antibodies against GFAP (1:1000; Chemicon; Temecula, Calif.) and β-actin (Sigma-Aldrich) as loading controls. After incubation with appropriate secondary antibodies conjugated to horseradish peroxidase (Jackson Immunochemicals; West Grove, Pa.), detection was performed with Super Signal West Pico (Pierce). Retinal astrocytes and Müller glia are central to the homeostatic and metabolic support of retinal neurons; whereas, after injury these cells develop glial scar that forms critical barriers to neuron regeneration and integration by retinal progenitor cells. […] Retinal glial morphology was examined by immunolabeling for glial marker GFAP and assessed the level of GFAP expression by Western blot at day 1-7 post injection. Expression of GFAP is widely detected in the normal mouse retinas (FIG. 1a).

[2] = system: transplanted retinal progenitors; experiment: Differentiation of transplanted retinal progenitors in pretreated host retina (immunohistochemistry); type: in vivo, mouse; details: pretreated wild-type hosts, 21 days post transplantation
Description: Mice were anesthetized by intraperitoneal injection of ketamine (62.5 mg/kg) and xylazine (12.5 mg/kg) and transcardially perfused with phosphate buffered saline (PBS) followed by 4% paraformaldehyde in PBS. Retinal flat-mounts or transverse retinal sections (14 μm) were preblocked with PBS containing 3% bovine serum albumin (Sigma-Aldrich, St. Louis, Mo.) and 0.3% Triton X (Sigma-Aldrich) and incubated, first, with primary antibody overnight, and then with secondary antibody for 1 hour at room temperature. The following antibodies were used: Cy3-conjugated monoclonal antibody against GFAP (1:1000; Sigma), Brn-3b (1:200; Santa Cruz Biotechnology; Santa Cruz, Calif.), mouse anti-rhodopsin (1:4000; Rho1D4), chick anti-cone-opsin (1:300), and Cy-2, Cy-3 or Cy-5-conjugated secondary antibody (Jackson ImmunoResearch; West Grove, Pa.). Assessment of morphological integration were quantified by counting EGFP+ cells located outside of transplanted cell clusters in retinal whole-mounts. Statistical significance was determined by either the two tailed student t test or ANOVA.
At 2 days before transplantation, 2 μl of a solution containing either α-AA (1 μg/μl) or saline (control) was injected unilaterally into the subretinal space of recipient wild-type or Gnat1^−/− mice (>2 months old). […]

retinal ganglion cells = experiment: Cell-attached patch clamp of retinal ganglion cells from Rho-/- mice; set-up: species or system mouse; details: retinas extracted from treated eyes of Rho-/- mice, cells responding/recorded
Description: Mice carrying rhodopsin deficiency (Rho^−/−) were used to determine if injection of alpha-aminoadipate (αAA) is sufficient to induce neuroregeneration from endogenous retinal progenitors, e.g., Muller cells, leading to preservation and restoration of photoreceptor cell function. Light-evoked photoreceptor responses and retinal functions in Rho^−/− mice that received αAA or saline injection were assessed using ERGS and whole cell-attached patch clamp. […] Consistent with the presence of ERG b-waves in αAA-treated eye, light-elicited spiking responses in some of the ganglion cells were observed (n=4/9) (FIG. 15 A, B). Similar to findings from other types of retinal degenerative mice, an elevated level of background firing in these cells, likely due to the changes in the excitability of the presynaptic network formed by bipolar cells and amacrine cells, were also observed. In contrast, no light-elicited responses in ganglion cells were recorded from the saline-injected eyes (n=4/4, FIG. 14C). […] Additional vision and optomotor tests known in the art are conducted to assess vision restoration, such as the water maze test. Thus, a single intraocular injection of αAA may be sufficient to improve vision, in part by increasing the number of cones.

Muller cells [3] = experiment: Müller cell proliferation and trans-differentiation in diseased eyes of Rho-/- mice; type: in vivo, mouse; details: administered directly to the diseased eyes of Rho-/- mice
Source text: Photoreceptor cell death can be measured or assessed by electroretinography, and a reduction or absence of a-wave and/or b-waves. […] Furthermore, proliferating Muller cells were also shown to be capable of trans-differentiating into retinal progenitor cells (expressing retinal progenitor markers).

Muller cells [4] = details: wild-type mice with normal retinas, Takeda et al. 2009; cited from earlier work

SMILES: NC(CCCC(=O)O)C(=O)O (stereo not drawn) [α-AA, alpha-aminoadipate]
- GFAP immunostaining at the injection site ([1]; by day 7 post injection): reappeared at the injection site
- GFAP expression around the injection site (immunolabeling) ([1]; single subretinal injection 1 μg/μl, 1-3 days post injection): effectively eliminated GFAP expression
- GFAP expression, Western blot quantification (GFAP; by day 7 post injection): returned to a control level
- GFAP expression, Western blot quantification (GFAP; day 3 post injection, vs normal or saline-injected controls): significant downregulation
- EGFP+ cells integrated into the ONL cone-opsin positive [2]: 12%
- EGFP+ cells integrated into the ONL positive for rhodopsin [2]: Approximately 80%
- ganglion cells with light-elicited spiking responses (retinal ganglion cells): 4/9
- proliferation of Muller cells (Muller cells [3]): resulted in proliferation of Muller cells
- Muller cell proliferation in the retina (Muller cells [4]): can stimulate Muller cell proliferation
